In brackets after ≈: the same amount, converted by molar mass. Several values for one entry are separate records, joined by “and”; a condition that tells them apart may be missing. Identical values can stand only once. Like-named read-outs stand apart in the source and are kept apart here.
What was measured:
[1] = test system: A. baumannii HUMC1; assay: MIC, broth microdilution in MHII, RPMI or modified media; assay type: cell-based, Acinetobacter baumannii
[2] = test system: A. baumannii ATCC 17978; assay: IC50 dose response, inhibition of bacterial growth (BacTiter-Glo viability); assay type: cell-based, Acinetobacter baumannii; settings: 11-point dose response, read-out: IC50
[3] = test system: A. baumannii HUMC1; assay: as above; assay type: cell-based, Acinetobacter baumannii; settings: 11-point dose response, read-out: IC50
[4] = test system: HEK293T; assay: Specificity: mammalian cell cytotoxicity / inhibition of bacteria growth (CC50/IC50)
[5] = test system: A. baumannii HUMC1; assay type: in vivo, mouse
[6] = test system: E. coli JJ1886; assay type: cell-based, Escherichia coli; settings: TSA
[7] = test system: S. aureus LAC; assay: microbe, parasite or virus in culture; assay type: cell-based; settings: Staphylococcus aureus, read-out: MIC
[8] = test system: A. baumannii HUMC1; assay type: in vivo, mouse; remark: listed apart in the source
[9] = test system: S. aureus LAC; assay type: cell-based, Staphylococcus aureus; settings: TSA
[10] = test system: E. coli; assay: MIC, broth microdilution; assay type: cell-based; settings: Escherichia coli, E. coli JJ1886
[11] = test system: A. baumannii; assay type: cell-based, Acinetobacter baumannii
[12] = test system: K. pneumonia; assay: MIC, broth microdilution; assay type: cell-based; settings: Klebsiella pneumoniae, read-out: MIC
[13] = test system: A. baumannii; assay: MIC, broth microdilution, A. baumannii clinical isolates / strain panel; assay type: cell-based, Acinetobacter baumannii; settings: Acinetobacter baumannii; for MIC: read-out: MIC; for MIC50 / MIC90: A. baumannii strain panel; for MIC50: read-out: MIC50; for MIC90: read-out: MIC90
[14] = test system: Acinetobacter baumannii; assay: Galleria mellonella infection model; assay type: in vivo; settings: Galleria mellonella; doses as high as 5 mg/kg
[15] = IC50 vs A. baumannii ATCC 17978, RPMI + 50% serum
[16] = IC50 vs A. baumannii ATCC 17978, RPMI alone
[17] = IC50 vs A. baumannii HUMC1, RPMI + 50% serum
[18] = IC50 vs A. baumannii HUMC1, RPMI alone
[19] = Acinetobacter baumannii, ATCC17978, ATCC 17978, RPMI + 50% Serum
[20] = Acinetobacter baumannii, ATCC17978, ATCC 17978, RPMI
[21] = Acinetobacter baumannii, HUMC1, 24 h, HUMC1, RPMI + 50% Serum
[22] = Acinetobacter baumannii, HUMC1, HUMC1, RPMI + 50% Serum
[23] = Acinetobacter baumannii, HUMC1, HUMC1, RPMI

## N#CC(C#N)=NNc1cccc(Cl)c1 [CCCP]
[1]; HUMC1, inhibitor alone
  MIC of efflux pump inhibitor alone: 8 µg/mL

## CO[C@H]1/C=C/O[C@@]2(C)Oc3c(C)c(O)c4c(O)c(c(/C=N/N=C/N5CCCCC5)c(O)c4c3C2=O)NC(=O)/C(C)=C\C=C\[C@H](C)[C@H](O)[C@@H](C)[C@@H](O)[C@@H](C)[C@H](OC(C)=O)[C@@H]1C [FCE-22250]
[2]; ATCC 17978, RPMI + 50% Serum
  IC50: 35.3 µM
[2]; ATCC 17978, RPMI
  IC50: 9.74 µM
[3]; HUMC1, RPMI + 50% Serum
  IC50: 21.7 µM
[3]; HUMC1, RPMI
  IC50: 9.03 µM
[4]; [15]
  Specificity HEK293T (CC50/IC50): 0.950
[4]; [16]
  Specificity HEK293T (CC50/IC50): 3.441
[4]; [17]
  Specificity HEK293T (CC50/IC50): 1.545
[4]; [18]
  Specificity HEK293T (CC50/IC50): 3.710

## CO[C@H]1/C=C/O[C@@]2(C)Oc3c(C)c(O)c4c(=O)c(c5oc6cc(N7CCN(CC(C)C)CC7)cc(O)c6nc-5c4c3C2=O)NC(=O)/C(C)=C\C=C\[C@H](C)[C@H](O)[C@@H](C)[C@@H](O)[C@@H](C)[C@H](OC(C)=O)[C@@H]1C [rifalazil]
[2]; [19]
  IC50: 50 µM
[2]; [20]
  IC50: 17.4 µM
[3]; [21]
  IC50: 7.51 µM
[3]; [22]
  IC50: 7.51 µM
[3]; [23]
  IC50: 20 µM
[4]; [15]
  Specificity HEK293T (CC50/IC50): 0.609
[4]; [16]
  Specificity HEK293T (CC50/IC50): 1.752
[4]; [17]
  Specificity HEK293T (CC50/IC50): 4.055
[4]; [18]
  Specificity HEK293T (CC50/IC50): 1.523

## CO[C@H]1/C=C/O[C@@]2(C)Oc3c(C)c(O)c4c(O)c(c(/C=N/N5CCN(C)CC5)c(O)c4c3C2=O)NC(=O)/C(C)=C\C=C\[C@H](C)[C@H](O)[C@@H](C)[C@@H](O)[C@@H](C)[C@H](OC(C)=O)[C@@H]1C [rifampin]
[5]; IV infection, RIF 10 or 30 mg/kg/daily for 3 days
  protection at minimum dose test: only partially protective
[5]; bacteremia model, 10 mg/kg for 3 days, 2 days post infection, PBS/control 0%
  survival: about 50%
[5]; murine bacteremia, 10 mg/kg
  protection: 50%
[1]; Acinetobacter baumannii, HUMC1, HUMC1, 0.01% Triton X-100, read-out: MIC
  MIC: 2 µg/mL (≈ 2.43 µM)
[1]; Acinetobacter baumannii, HUMC1, HUMC1, 0.05% Tween 20, MHII, read-out: MIC
  MIC: 2 µg/mL (≈ 2.43 µM)
[1]; Acinetobacter baumannii, HUMC1, HUMC1, 25° C., MHII, read-out: MIC
  MIC: 2 µg/mL (≈ 2.43 µM)
[1]; Acinetobacter baumannii, HUMC1, HUMC1, 25° C., RPMI, read-out: MIC
  MIC: 2 µg/mL (≈ 2.43 µM)
[1]; Acinetobacter baumannii, HUMC1, HUMC1, MHII (CAMHB), read-out: MIC
  MIC: 4 µg/mL (≈ 4.86 µM)
[1]; Acinetobacter baumannii, HUMC1, HUMC1, RPMI + Essential Amino Acid Solution (50×), read-out: MIC
  MIC: 6.25 µg/mL
[1]; Acinetobacter baumannii, HUMC1, HUMC1, RPMI + L-Histidine 0.5 mM
  MIC: 12.5 µg/mL
[1]; Acinetobacter baumannii, HUMC1, HUMC1, RPMI + L-Tryptophan 0.125 mM
  MIC: 12.5 µg/mL
[1]; HUMC1, 25° C. or 30° C. compared to 37° C., MHII or RPMI
  difference in MICs at lower temperature: did not observe any difference
[1]; HUMC1, MHII (CAMHB in b45)
  MIC: 3.125 µg/mL (≈ 3.8 µM)
[1]; HUMC1, MHII (CAMHB in b45), listed as Rifampin
  MIC: 3.125 µg/mL (≈ 3.8 µM)
[1]; HUMC1, MHII (CAMHB), listed as RIF
  MIC: 2 µg/mL and 3.125 µg/mL
[1]; HUMC1, RPMI
  MIC: 3.125 µg/mL (≈ 3.8 µM)
[1]; HUMC1, RPMI, listed as Rifampin
  MIC: 3.125 µg/mL (≈ 3.8 µM)
[6]
  Mutation Frequency: 2.21E−08
[2]; Acinetobacter baumannii, ATCC17978, 24 h, ATCC 17978, RPMI + 50% Serum
  IC50: 18.2 µM
[2]; [19]
  IC50: 18.2 µM
[2]; [20]
  IC50: 13.8 µM
[7]; MHII
  MIC: 0.025 µg/mL (≈ 0.0304 µM)
[7]; RPMI
  MIC: 0.05 µg/mL (≈ 0.0608 µM)
[8]; 5 mg/kg for 3 days, 2 days post infection
  survival: < 20%
[8]; 5 mg/kg/daily for 3 days, oral gavage
  survival: did not protect from mortality
[8]; 5 mg/kg/daily for 3 days, oral gavage, listed as RFP
  survival: did not improve survival vs. control
[8]; 5 mg/kg/daily for 3 days, oral gavage, listed as RIF
  survival: did not do any better as compared to the PBS control group
[8]; 5 mg/kg/daily for 3 days, oral gavage, lungs at 24 hrs post infection
  lung CFUs: did not reduce CFUs compared to control
[8]; murine pneumonia, 5 mg/kg, day 7 post-infection
  bacterial burden: ~6.5 Log10(CFU/mg lung)
[3]; [21]
  IC50: 7.99 µM
[3]; [22]
  IC50: 7.99 µM
[3]; [23]
  IC50: 11 µM
[4]; [15]
  Specificity HEK293T (CC50/IC50): 2.741
[4]; [16]
  Specificity HEK293T (CC50/IC50): 3.621
[4]; [17]
  Specificity HEK293T (CC50/IC50): 6.256
[4]; [18]
  Specificity HEK293T (CC50/IC50): 4.538
[9]
  Mutation Frequency: 9.49E−08
[10]; MHII
  MIC: 6.25 µg/mL (≈ 7.59 µM)
[10]; RPMI
  MIC: 25 µg/mL (≈ 30.4 µM)
[11]; A. baumannii ABNIH1, MHII
  Mutation Frequency: 4.17E−08
[11]; A. baumannii ATCC17978, MHII
  Mutation Frequency: 5.14E−09
[11]; A. baumannii ATCC17978, TSA
  Mutation Frequency: 7.95E−09
[11]; A. baumannii HUMC1, MHII
  Mutation Frequency: 9.19E−09
[11]; A. baumannii HUMC1, TSA
  Mutation Frequency: 1.44E−08
[11]; A. baumannii LAC-4, MHII
  Mutation Frequency: 2.62E−08
[12]; K. pneumonia KP-3, MHII
  MIC: 3.12 µg/mL (≈ 3.8 µM)
[12]; K. pneumonia KP-3, RPMI
  MIC: 1.56 µg/mL (≈ 1.9 µM)
[12]; K. pneumonia KPC-KP1, MHII
  MIC: 25 µg/mL (≈ 30.4 µM)
[12]; K. pneumonia KPC-KP1, RPMI
  MIC: 50 µg/mL (≈ 60.8 µM)
[13]; A. baumannii (strain not named), MHII
  MIC: 4 µg/mL (≈ 4.86 µM)
[13]; A. baumannii (strain not named), RPMI with serum
  MIC: 4 µg/mL (≈ 4.86 µM)
[13]; A. baumannii VA-AB21, MHII
  MIC: 3.12 µg/mL (≈ 3.8 µM)
[13]; A. baumannii VA-AB21, RPMI
  MIC: > 6.12 µg/mL
[13]; CAMHB
  MIC50: 3.13 µg/mL (≈ 3.8 µM)
  MIC90: 6.25 µg/mL (≈ 7.59 µM)
[13]; RPMI
  MIC50: 12.5 µg/mL (≈ 15.2 µM)
  MIC90: 25 µg/mL (≈ 30.4 µM)
[13]; ATCC17978, A. baumannii ATCC17978 and HUMC1, MHII
  MIC: 2 µg/mL (≈ 2.43 µM)
[13]; ATCC17978, A. baumannii ATCC17978 and HUMC1, RPMI
  MIC: 8 µg/mL (≈ 9.72 µM)
[14]
  protection: only a partial protection
